Some results are limits rather than exact numbers.

The nature of this assay: Displacement of [3H]-clonidine from bovine imidazoline receptor I-1.
Regarding `NC[C@H](O)c1ccc(O)c(O)c1` [4-[(1R)-2-amino-1-hydroxyethyl]benzene-1,2-diol], the Ki was over 100000 nM.
`Clc1cccc(Cl)c1N=C1NCCN1` [2-(2,6-dichloroanilino)-2-imidazoline] returned a Ki of 8.9 nM. In other words, the single-digit nanomolar range.
For the molecule `CC(C)C1C2CCC(C2)C1N` (centres undefined) [3-Isopropyl-bicyclo[2.2.1]hept-2-ylamine], the Ki came out at 42 nM. This Ki lies about 4.7-fold higher than the previous one.
Turning to `COc1nc(C)nc(Cl)c1N=C1NCCN1` [(4-Chloro-6-methoxy-2-methyl-pyrimidin-5-yl)-imidazolidin-2-ylidene-amine], affinity was put at a Ki of 56 nM.
